Source: ChEMBL document CHEMBL3045592, “Studies of O,O-dimethyl α-(2,4-dichlorophenoxyacetoxy)ethylphosphonate (HW02) as a new herbicide. 1. Synthesis and herbicidal activity of HW02 and analogues as novel inhibitors of pyruvate dehydrogenase complex” (J Agric Food Chem, 2011)

How the values were obtained:
[1] = system: Amaranthus spinosus; test: Pre-emergence herbicidal activity against Amaranthus spinosus assessed as growth inhibition at 450 ai g/ha after 20 days by green house test; assay type: functional
[2] = system: Chenopodium album; test: Post-emergence herbicidal activity against Chenopodium album assessed as growth inhibition at 75 ai g/ha after 20 days by green house test; assay type: functional
[3] = system: Chenopodium album; test: Pre-emergence herbicidal activity against Chenopodium album assessed as growth inhibition at 75 ai g/ha after 20 days by green house test; assay type: functional
[4] = system: Setaria viridis; test: Post-emergence herbicidal activity against Setaria viridis (green foxtail) assessed as growth inhibition at 450 ai g/ha after 20 days by green house test; assay type: functional
[5] = system: Digitaria sanguinalis; test: Post-emergence herbicidal activity against Digitaria sanguinalis (hairy crabgrass) assessed as growth inhibition at 150 ai g/ha after 20 days by green house test; assay type: functional
[6] = system: Cucumis sativus; test: Herbicidal activity against Cucumis sativus Jin 4 (cucumber) assessed as inhibition of root growth after 3 days; assay type: functional, organism-based; conditions: Jin 4, 72 h
[7] = system: Amaranthus spinosus; test: Post-emergence herbicidal activity against Amaranthus spinosus assessed as growth inhibition at 75 ai g/ha after 20 days by green house test; assay type: functional
[8] = system: Digitaria sanguinalis; test: Post-emergence herbicidal activity against Digitaria sanguinalis (hairy crabgrass) assessed as growth inhibition at 450 ai g/ha after 20 days by green house test; assay type: functional
[9] = system: Chenopodium album; test: Pre-emergence herbicidal activity against Chenopodium album assessed as growth inhibition at 450 ai g/ha after 20 days by green house test; assay type: functional
[10] = system: Digitaria sanguinalis; test: Pre-emergence herbicidal activity against Digitaria sanguinalis (hairy crabgrass) assessed as growth inhibition at 450 ai g/ha after 20 days by green house test; assay type: functional
[11] = system: Digitaria sanguinalis; test: Pre-emergence herbicidal activity against Digitaria sanguinalis (hairy crabgrass) assessed as growth inhibition at 75 ai g/ha after 20 days by green house test; assay type: functional
[12] = system: Digitaria sanguinalis; test: Pre-emergence herbicidal activity against Digitaria sanguinalis (hairy crabgrass) assessed as growth inhibition at 150 ai g/ha after 20 days by green house test; assay type: functional
[13] = system: Echinochloa crus-galli; test: Post-emergence herbicidal activity against Echinochloa crus-galli (barnyard grass) assessed as growth inhibition at 450 ai g/ha after 20 days by green house test; assay type: functional
[14] = system: Chenopodium album; test: Pre-emergence herbicidal activity against Chenopodium album assessed as growth inhibition at 150 ai g/ha after 20 days by green house test; assay type: functional
[15] = system: Abutilon theophrasti; test: Pre-emergence herbicidal activity against Abutilon theophrasti (velvetleaf) assessed as growth inhibition at 450 ai g/ha after 20 days by green house test; assay type: functional
[16] = system: Chenopodium album; test: Post-emergence herbicidal activity against Chenopodium album assessed as growth inhibition at 450 ai g/ha after 20 days by green house test; assay type: functional
[17] = system: Abutilon theophrasti; test: Post-emergence herbicidal activity against Abutilon theophrasti (velvetleaf) assessed as growth inhibition at 150 ai g/ha after 20 days by green house test; assay type: functional
[18] = system: Amaranthus spinosus; test: Post-emergence herbicidal activity against Amaranthus spinosus assessed as growth inhibition at 450 ai g/ha after 20 days by green house test; assay type: functional
[19] = system: Setaria viridis; test: Pre-emergence herbicidal activity against Setaria viridis (green foxtail) assessed as growth inhibition at 150 ai g/ha after 20 days by green house test; assay type: functional
[20] = system: Digitaria sanguinalis; test: Post-emergence herbicidal activity against Digitaria sanguinalis (hairy crabgrass) assessed as growth inhibition at 75 ai g/ha after 20 days by green house test; assay type: functional
[21] = system: Amaranthus spinosus; test: Post-emergence herbicidal activity against Amaranthus spinosus assessed as growth inhibition at 150 ai g/ha after 20 days by green house test; assay type: functional
[22] = system: Abutilon theophrasti; test: Pre-emergence herbicidal activity against Abutilon theophrasti (velvetleaf) assessed as growth inhibition at 150 ai g/ha after 20 days by green house test; assay type: functional
[23] = system: Amaranthus retroflexus; test: Post-emergence herbicidal activity against Amaranthus retroflexus assessed as growth inhibition at 450 ai g/ha after 20 days by green house test; assay type: functional
[24] = system: Setaria viridis; test: Pre-emergence herbicidal activity against Setaria viridis (green foxtail) assessed as growth inhibition at 75 ai g/ha after 20 days by green house test; assay type: functional
[25] = system: Amaranthus spinosus; test: Pre-emergence herbicidal activity against Amaranthus spinosus assessed as growth inhibition at 150 ai g/ha after 20 days by green house test; assay type: functional
[26] = system: Chenopodium album; test: Post-emergence herbicidal activity against Chenopodium album assessed as growth inhibition at 150 ai g/ha after 20 days by green house test; assay type: functional
[27] = system: Setaria viridis; test: Post-emergence herbicidal activity against Setaria viridis (green foxtail) assessed as growth inhibition at 150 ai g/ha after 20 days by green house test; assay type: functional
[28] = system: Pisum sativum; test: Post-emergence herbicidal activity against Pisum sativum Zhongwan-2 (pea) assessed as growth inhibition at 450 ai g/ha after 20 days by green house test; conditions: Lathyrus oleraceus
[29] = system: Setaria viridis; test: Pre-emergence herbicidal activity against Setaria viridis (green foxtail) assessed as growth inhibition at 450 ai g/ha after 20 days by green house test; assay type: functional
[30] = system: Amaranthus spinosus; test: Pre-emergence herbicidal activity against Amaranthus spinosus assessed as growth inhibition at 75 ai g/ha after 20 days by green house test; assay type: functional
[31] = biological target: Pyruvate dehydrogenase complex (Vigna radiata var. radiata); test: Inhibition of PDHc in Vigna radiata var. radiata VC2778A shoot mitochondria assessed as decrease in rate of NADH formation using sodium pyruvate as substrate preincubated for 25 min before substrate addition measured after 1 min by spectrophotometric assay; assay type: protein-complex assay
[32] = system: Abutilon theophrasti; test: Pre-emergence herbicidal activity against Abutilon theophrasti (velvetleaf) assessed as growth inhibition at 75 ai g/ha after 20 days by green house test; assay type: functional
[33] = system: Setaria viridis; test: Post-emergence herbicidal activity against Setaria viridis (green foxtail) assessed as growth inhibition at 75 ai g/ha after 20 days by green house test; assay type: functional
[34] = system: Abutilon theophrasti; test: Post-emergence herbicidal activity against Abutilon theophrasti (velvetleaf) assessed as growth inhibition at 75 ai g/ha after 20 days by green house test; assay type: functional
[35] = system: Abutilon theophrasti; test: Post-emergence herbicidal activity against Abutilon theophrasti (velvetleaf) assessed as growth inhibition at 450 ai g/ha after 20 days by green house test; assay type: functional
[36] = Toxicity against Oryza sativa (rice) assessed as growth inhibition at 450 ai g/ha post-emergent application measured after 20 days by green house crop selectivity test; assay type: organism-based; conditions: in vivo, read-out: GI
[37] = system: Brassica juncea; test: Post-emergence herbicidal activity against Brassica juncea assessed as growth inhibition at 450 ai g/ha after 20 days by green house test; assay type: functional

## CCOP(=O)(OCC)C(C)OC(=O)COc1ccc(Cl)cc1Cl (configuration not stated)
[1]
  growth inhibition (GI): 50%
[2]
  growth inhibition (GI): 62.5%
[3]
  growth inhibition (GI): 0%
[4]
  growth inhibition (GI): 0%
[5]
  growth inhibition (GI): 0%
[6]
  IC50: 0.3 µM
[7]
  growth inhibition (GI): 52.5%
[8]
  growth inhibition (GI): 0%
[9]
  growth inhibition (GI): 52.5%
[10]
  growth inhibition (GI): 10%
[11]
  growth inhibition (GI): 0%
[12]
  growth inhibition (GI): 0%
[13]
  growth inhibition (GI): 5%
[14]
  growth inhibition (GI): 0%
[15]
  growth inhibition (GI): 47.5%
[16]
  growth inhibition (GI): 97.5%
[17]
  growth inhibition (GI): 97.5%
[18]
  growth inhibition (GI): 100%
[19]
  growth inhibition (GI): 0%
[20]
  growth inhibition (GI): 0%
[21]
  growth inhibition (GI): 82.5%
[22]
  growth inhibition (GI): 0%
[23]
  growth inhibition (GI): 100%
[24]
  growth inhibition (GI): 0%
[25]
  growth inhibition (GI): 0%
[26]
  growth inhibition (GI): 92.5%
[27]
  growth inhibition (GI): 0%
[28]
  growth inhibition (GI): 82.5%
[29]
  growth inhibition (GI): 5.5%
[30]
  growth inhibition (GI): 0%
[31]
  IC50: 23.1 µM
[32]
  growth inhibition (GI): 0%
[33]
  growth inhibition (GI): 0%
[34]
  growth inhibition (GI): 97.5%
[35]
  growth inhibition (GI): 100%
[36]
  inhibition at 480 h: 37.5%
[37]
  growth inhibition (GI): 97.5%
